Tested on: rat with complete mid-thoracic spinal cord transection
Assay: Locomotor behavior of rats one week after complete mid-thoracic spinal cord transection, drug therapy with or without epidural stimulation (FIG. 1)
Format: in vivo
Details: one week post-injury; for Locomotor behavior, epidural stimulation in combination with a single drug: epidural stimulation simultaneously at L2 plus S1; for Locomotor behavior after administration of drug: no epidural stimulation
Description: FIG. 1 summarizes recent experiments in rats that were carried out to assess the effectiveness of epidural stimulation coupled with combined drug therapy in the treatment of complete spinal cord injuries. The combination of quipazine and 8-OHDPAT with simultaneous epidural stimulation at spinal sites L2 and S1 results in robust coordinated stepping as early as one week after a complete spinal cord transection. Locomotor behavior observed from a typical rat before the injury and one week after a complete mid-thoracic spinal cord transection. The amount of body weight support provided to the rat is shown in red. One week post-injury, no spontaneous stepping activity is observed. […] Sol, soleus; TA, tibialis anterior;MTP, metatarsal-phalangeal.
FIG. 1 summarizes experiments in rats that were carried out to assess the effectiveness of epidural stimulation coupled with combined drug therapy in acute treatment of complete spinal cord injury.

SMILES | Locomotor behavior, epidural stimulation in combination with a single drug | Locomotor behavior after administration of drug
CCCN(CCC)C1CCc2cccc(O)c2C1 (stereo not shown) [8-OHDPAT] | enables plantar stepping | erratic movements
c1ccc2nc(N3CCNCC3)ccc2c1 [Quipazine] | enables plantar stepping | erratic movements

From patent US20180353755A1, “EPIDURAL STIMULATION FOR FACILITATION OF LOCOMOTION, POSTURE, VOLUNTARY MOVEMENT, AND RECOVERY OF AUTONOMIC, SEXUAL, VASOMOTOR, AND COGNITIVE FUNCTION AFTER NEUROLOGICAL INJURY” (NeuroRecovery Technologies, Inc., priority 2014, published 2018)
